# Experimental data reported in ChEMBL document CHEMBL1201862, “PubChem BioAssay data set” (2004).
#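 Test compounds were applied to cells in 96-well plates for 48 hours at 5 doses. Here, GI50 denotes the concentration required for 50% inhibition of growth.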 Activity calls are given as the source filed them. Cut-off read from the data, not from the text of the source: active = GI50 up to about 1.1 µM and inactive = higher.
# Tests used:
# Assay in all cases: inhibition of tumour cell growth, NCI panel, 48 h
# [1] = tested on: 786-0
# [2] = tested on: A549
# [3] = tested on: COLO 205
# [4] = tested on: EKVX
# [5] = tested on: HCC 2998
# [6] = tested on: HCT-15
# [7] = tested on: HL-60
# [8] = tested on: K562
# [9] = tested on: KM12
# [10] = tested on: NCI-H23
# [11] = tested on: NCI-H522
# [12] = tested on: OVCAR-3
# [13] = tested on: OVCAR-8
# [14] = tested on: RXF 393
# [15] = tested on: SK-MEL-5
# [16] = tested on: SN12C
# [17] = tested on: UO-31
# [18] = tested on: HOP-62
# [19] = tested on: MDA-MB-435
# [20] = tested on: NCI/ADR-RES
Compound,GI50 [1],GI50 [2],GI50 [3],GI50 [4],GI50 [5],GI50 [6] [µM],GI50 [7],GI50 [8],GI50 [9],GI50 [10],GI50 [11],GI50 [12],GI50 [13],GI50 [14],GI50 [15],GI50 [16],GI50 [17],GI50 [18],GI50 [19],GI50 [20]
Cc1ccccc1N(CC(=O)O)S(=O)(=O)c1ccccc1,> 100 µM (inactive),> 100 µM (inactive),> 100 µM (inactive),> 100 µM (inactive),> 100 µM (inactive),> 100,> 100 µM (inactive),> 100 µM (inactive),> 100 µM (inactive),> 100 µM (inactive),> 100 µM (inactive),> 100 µM (inactive),> 100 µM (inactive),> 100 µM (inactive),> 100 µM (inactive),> 100 µM (inactive),> 100 µM (inactive),–,–,–
Cc1ccc([Se][Se]c2ccc(C)cc2)cc1,18.6 µM (inactive),33.3 µM (inactive),> 100 µM (inactive),–,53.8 µM (inactive),9.35,4.02 µM (inactive),5.04 µM (inactive),50.2 µM (inactive),23.8 µM (inactive),3.32 µM (inactive),31.6 µM (inactive),45.3 µM (inactive),19.9 µM (inactive),16 µM (inactive),26.7 µM (inactive),14.1 µM (inactive),> 100 µM (inactive),–,–
C[C@]12Cc3cn[nH]c3C(=O)C1CC[C@@H]1C2CC[C@@]2(C)C1CC[C@]2(C)O (some centres undefined),89.5 µM (inactive),> 100 µM (inactive),> 100 µM (inactive),> 100 µM (inactive),> 100 µM (inactive),> 100,> 100 µM (inactive),> 100 µM (inactive),> 100 µM (inactive),> 100 µM (inactive),> 100 µM (inactive),> 100 µM (inactive),> 100 µM (inactive),> 100 µM (inactive),> 100 µM (inactive),> 100 µM (inactive),> 100 µM (inactive),> 100 µM (inactive),–,–
COC1(OC)CC2C=C(S(=O)(=O)c3ccccc3)C1N(Cc1ccccc1)C2=O (centres undefined),39.4 µM (inactive),33 µM (inactive),19.9 µM (inactive),91.4 µM (inactive),60.3 µM (inactive),–,16.2 µM (inactive),35 µM (inactive),24.7 µM (inactive),15.2 µM (inactive),16.4 µM (inactive),17.1 µM (inactive),23 µM (inactive),17.9 µM (inactive),32.3 µM (inactive),23 µM (inactive),35.5 µM (inactive),97.7 µM (inactive),–,–
COc1ccc(C2SCC(=O)N2NC(=O)c2ccncc2)cc1F (centres undefined),–,> 100 µM (inactive),> 100 µM (inactive),–,> 100 µM (inactive),> 100,> 100 µM (inactive),–,> 100 µM (inactive),> 100 µM (inactive),> 100 µM (inactive),–,–,> 100 µM (inactive),> 100 µM (inactive),> 100 µM (inactive),–,> 100 µM (inactive),–,–
COc1cc(-c2cc(=O)c3c(O)c(OC)c(OC)c(OC)c3o2)ccc1O,29.8 µM (inactive),27.3 µM (inactive),> 10 µM (inactive),> 100 µM (inactive),34.6 µM (inactive),7.74,31.3 µM (inactive),17.8 µM (inactive),29.9 µM (inactive),27.7 µM (inactive),17.1 µM (inactive),32.1 µM (inactive),16.3 µM (inactive),13 µM (inactive),15.3 µM (inactive),26.7 µM (inactive),28.8 µM (inactive),21.6 µM (inactive),–,–
CCOP(=O)(O)C1C(CO)OC(n2ccc(=O)[nH]c2=O)C1O (centres undefined),> 100 µM (inactive),> 100 µM (inactive),–,> 100 µM (inactive),> 100 µM (inactive),> 100,> 100 µM (inactive),> 100 µM (inactive),> 100 µM (inactive),–,> 100 µM (inactive),> 100 µM (inactive),> 100 µM (inactive),> 100 µM (inactive),> 100 µM (inactive),> 100 µM (inactive),> 100 µM (inactive),> 100 µM (inactive),–,–
Nc1nc(SCc2ccc([N+](=O)[O-])cc2)nc2c1ncn2C1OC(COP(=O)(O)O)C(O)C1O (centres undefined),–,> 100 µM (inactive),> 100 µM (inactive),> 100 µM (inactive),> 100 µM (inactive),> 100,> 100 µM (inactive),> 100 µM (inactive),> 100 µM (inactive),> 100 µM (inactive),> 100 µM (inactive),> 100 µM (inactive),> 100 µM (inactive),> 100 µM (inactive),> 100 µM (inactive),> 100 µM (inactive),–,> 100 µM (inactive),–,–
CO[C@@]12C[C@@H](CNC(=O)c3cc(Br)c[nH]3)O[C@@H]1NC(=O)N2,> 100 µM (inactive),> 100 µM (inactive),> 100 µM (inactive),> 100 µM (inactive),–,> 100,–,–,> 100 µM (inactive),> 100 µM (inactive),> 100 µM (inactive),> 100 µM (inactive),> 100 µM (inactive),> 100 µM (inactive),> 100 µM (inactive),> 100 µM (inactive),> 100 µM (inactive),> 100 µM (inactive),> 100 µM (inactive),> 100 µM (inactive)
O=C(NN1C(=O)C(Cl)C1c1cccc(O)c1)c1ccccc1O (centres undefined),–,> 100 µM (inactive),–,–,> 100 µM (inactive),> 100,> 100 µM (inactive),> 100 µM (inactive),> 100 µM (inactive),> 100 µM (inactive),> 100 µM (inactive),> 100 µM (inactive),> 100 µM (inactive),> 100 µM (inactive),> 100 µM (inactive),> 100 µM (inactive),> 100 µM (inactive),–,–,–
CCOC(=O)/C(O)=C1\C(=O)N(C)C(=O)C1c1cccc(OC)c1 (centres undefined),–,> 100 µM (inactive),> 100 µM (inactive),> 100 µM (inactive),> 100 µM (inactive),> 100,> 100 µM (inactive),> 100 µM (inactive),> 100 µM (inactive),> 100 µM (inactive),> 100 µM (inactive),> 53.3 µM (inactive),> 100 µM (inactive),> 100 µM (inactive),> 100 µM (inactive),> 100 µM (inactive),> 100 µM (inactive),> 100 µM (inactive),–,> 100 µM (inactive)
C=C=C(C(=O)OC)[S+]([O-])c1ccccc1[N+](=O)[O-] (centres undefined),> 100 µM (inactive),> 100 µM (inactive),> 100 µM (inactive),> 100 µM (inactive),> 100 µM (inactive),59,75.2 µM (inactive),59.2 µM (inactive),> 100 µM (inactive),> 100 µM (inactive),22.3 µM (inactive),> 100 µM (inactive),> 100 µM (inactive),> 100 µM (inactive),> 100 µM (inactive),> 100 µM (inactive),> 100 µM (inactive),> 100 µM (inactive),–,–
COc1ccc(OC(C)=O)c2c1CCC=CC2=O,17.9 µM (inactive),19.1 µM (inactive),9.2 µM (inactive),–,17.1 µM (inactive),14.5,2.47 µM (inactive),3.76 µM (inactive),3.4 µM (inactive),18.5 µM (inactive),1.86 µM (inactive),15.8 µM (inactive),16.8 µM (inactive),9.16 µM (inactive),15.6 µM (inactive),17.1 µM (inactive),17.2 µM (inactive),14.7 µM (inactive),–,–
CCc1cccc(C(C)C)c1NC(=O)CC1Sc2ccccc2NC1=O (centres undefined),80 µM (inactive),49.2 µM (inactive),50.4 µM (inactive),80.5 µM (inactive),> 100 µM (inactive),47.9,24 µM (inactive),44.6 µM (inactive),54.8 µM (inactive),52.8 µM (inactive),33.4 µM (inactive),56 µM (inactive),78 µM (inactive),41 µM (inactive),36.5 µM (inactive),> 100 µM (inactive),43.3 µM (inactive),> 100 µM (inactive),–,–
O=C1C=CC2(C=C1)C[C@H](NC(=O)C(F)(F)F)C(=O)O2,> 100 µM (inactive),> 100 µM (inactive),29.6 µM (inactive),18.2 µM (inactive),46.9 µM (inactive),31.6,14.2 µM (inactive),20.4 µM (inactive),73.5 µM (inactive),26.7 µM (inactive),17.3 µM (inactive),> 100 µM (inactive),37.2 µM (inactive),27.5 µM (inactive),76.2 µM (inactive),50 µM (inactive),> 100 µM (inactive),> 100 µM (inactive),–,–
CCc1cccc(C(C)C)c1NC(=O)C(=O)C(CC(=O)Nc1ccc(Cl)c(Cl)c1)C(=O)OC (centres undefined),> 100 µM (inactive),> 100 µM (inactive),77.3 µM (inactive),> 100 µM (inactive),> 100 µM (inactive),14.8,> 100 µM (inactive),10.9 µM (inactive),43.7 µM (inactive),> 100 µM (inactive),78.9 µM (inactive),> 100 µM (inactive),> 100 µM (inactive),> 100 µM (inactive),55.8 µM (inactive),> 100 µM (inactive),37.8 µM (inactive),35.2 µM (inactive),–,–
